Assay results reported in PubChem BioAssay AID1918939 (Molecular Pharmacology Branch, DTP, NCI, 2023).
Where “and” joins values, the source holds several entries; their conditions need not be identical. Equal values may be shown once.

Test system: 653999-131-R-J2-PDC complex spheroid viability
Assay: Anticancer human tumor 653999-131-R-J2-PDC patient-derived lung adenocarcinoma cell line growth inhibition
Settings: for viability, T/C: stronger effect = lower value
Excerpt: Multicellular complex tumor spheroid response to LSD1 Inhibitor Iadademstat in combination with a variety of drugs and investigational agents in selected tumor cell lines
The current study was undertaken to assess response to LSD1 inhibitors in combination with standard-of-care drugs and investigational agents in solid tumor complex spheroid models as well as in the K-562 leukemia. Complex spheroids include a stromal component modeled by human endothelial cells (HUVEC) and fibroblasts modeled by human mesenchymal stem cells (MSCs). The concentration ranges selected for each drug and investigational agent were based upon clinically achievable concentrations if the clinical Cmax of the agent was known.
Compounds. The drugs and investigational agents used in this study are listed on Table 1. All of the agents used, including staurosporine (NSC755774) and gemcitabine (NSC613327), were obtained from the Developmental Therapeutics Program, NCI. FDA-approved anticancer drugs are available from the NCI at http://dtp.nci.nih.gov/branches/dscb/oncology_drugset_explanation.html. Drugs and investigational agents were >95% pure by proton nuclear magnetic resonance (NMR) and liquid chromatography/mass spectrometry (LC/MS). Stock solutions were prepared at 400x in DMSO, stored at -70 degrees C, and diluted in fresh medium prior to their use. The final concentration of DMSO in cell culture wells never exceeded 0.25% (v/v). The FDA-approved anticancer drug set is available from the Developmental Therapeutics Program at https://dtp.cancer.gov/organization/dscb/obtaining/available_plates.htm. All drugs and investigational agents were tested over a range starting from a high concentration at or near the clinical Cmax and decreasing in half-log increments. If the clinical Cmax for an agent had not been determined, the highest concentration tested was 10 microM.
Cell Lines. The patient-derived cancer cell (PDC) lines: 292921-168-R-J2-PDC, K24384-001-R-PDC, and 521955-158-R2-J5-PDC pancreatic carcinomas, 556581-035-R-J1 ovarian carcinoma, 324938-238-R-J1-PDC, 855422-203-R-J1-PDC and 883617-216-R-J1-PDC urothelial bladder carcinomas, 743489-274-T-PDC renal cell carcinoma, 138582-R-J1 Merkel cell tumor, K60290-347-R-J1 and K57222-313-R-J1-PDC glioblastomas, 653999-131-R-J2-PDC, LG0703-F948-PDC, and 349418-098-R-PDC non-small cell lung carcinomas, 885512-296-R-J2-PDC, 171881-019-R-J1-PDC breast carcinomas and 186277-243-T-J2-PDC and 233499-124-R-J2-PDC colon carcinomas were obtained from the NCI Patient-Derived Models Repository (PDMR, https://pdmr.cancer.gov). The established cell lines NCI/ADR-RES (RRID:CVCL_14520 and OVCAR-5 (RRID:CVCL_1628) ovarian carcinomas, 786-O (RRID:CVCL_1051) and A498 (RRID:CVCL_A498) renal cell carcinoma, NCI-H211 (ATCC, cat. CRL-5824; RRID:CVCL_1529), NCI-H196 (ATCC, cat. CRL-5823, RRID:CVCL_1509), SW 1271 (ATCC, cat. CRL-2177, RRID:CVCL_1716) and NCI-H1876 (ATCC, cat. CRL-5902, RRID:CVCL_1503) small cell lung carcinomas, MDA-MB-231 (RRID:CVCL_0062) and MDA-MB-468 (RRID:CVCL_0419)breast carcinomas (10-12). Pooled donor human umbilical vein endothelial cells (HUVEC, Lonza, cat. CC-2519) and human mesenchymal stem cells (hMSC, Lonza, cat. PT-2501) were purchased from Lonza (Walkersville, MD).
Cell Culture. All cells were maintained in an incubator at 37 degrees C and 5% CO2 with 95% humidity. The PDC lines were cultured according to standard operating procedures established by the NCI PDMR (https://pdmr.cancer.gov). Briefly all PDCs were thawed and cultured in Matrigel-coated flasks prepared with a working solution of 1X Ham's F-12 nutrient mix, without supplementation (Invitrogen, Waltham, MA, cat. 11765054), 100 U/mL penicillin-streptomycin (Invitrogen, cat. 15140122), and 2.5% Matrigel (Corning Inc., Corning, NY, cat. 354248) for the first three passages. […]
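Also: spheroids exposed to agents for seven days before readout.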

Row | Structure (SMILES) | viability, T/C (compound 0.00316 µM) | viability, T/C (compound 0.01 µM) | viability, T/C (compound 0.0316 µM) | viability, T/C (compound 0.1 µM) | IC50 (curve of compound) | viability, T/C (compound 0.316 µM) | viability, T/C (compound 1 µM) | viability, T/C (compound 0.00949 µM) | viability, T/C (compound 0.03 µM) | viability, T/C (compound 0.0949 µM) | viability, T/C (compound 0.3 µM) | other results
1 | CC(C)CC(NC(=O)C(Cc1ccccc1)NC(=O)c1cnccn1)B(O)O (centres undefined) | 23.9% and 13.2% | 1.83% and 5.29% | 2.67% and 1.3% | 0.76% and 1.16% | 2.17 nM and 0.852 nM | – | – | – | – | – | – | viability, T/C (compound 0.000316 µM): 114% and 119%; viability, T/C (compound 0.001 µM): 103% and 38.1%
2 | CC(C)CC(NC(=O)CNC(=O)c1cc(Cl)ccc1Cl)B1OC(=O)CC(CC(=O)O)(C(=O)O)O1 (centres undefined) | 92.6% and 107% | 56.9% and 74.5% | 25.3% and 34.1% | 5.14% and 18.5% | 13.4 nM and 19.9 nM | – | – | – | – | – | – | viability, T/C (compound 0.000316 µM): 101% and 110%; viability, T/C (compound 0.001 µM): 108% and 115%
3 | CC(C)c1c(-c2ccccc2)nc2c(C#N)c[nH]n2c1=O | – | – | 98.4% and 88.9% | 107% and 94.6% | > 10000 nM | 108% and 93.6% | 116% and 98.2% | – | – | – | – | viability, T/C (compound 3.16 µM): 109% and 88.9%; viability, T/C (compound 10 µM): 94.7% and 88.9%
4 | CC1(C)CCC(CN2CCN(c3ccc(C(=O)NS(=O)(=O)c4ccc(NCC5CCOCC5)c([N+](=O)[O-])c4)c(Oc4cnc5[nH]ccc5c4)c3)CC2)=C(c2ccc(Cl)cc2)C1 | – | – | 92.8% and 101% | 106% and 102% | > 10000 nM and 6320 nM | 97% and 104% | 83.8% and 97.2% | – | – | – | – | viability, T/C (compound 3.16 µM): 92.2% and 85.6%; viability, T/C (compound 10 µM): 60.5% and 26.7%
5 | CC1COCCN1c1cc(-c2ccnn2C)c2ccnc(-c3ccn[nH]3)c2n1 (centres undefined) | 81.7% and 58.4% | 66.4% and 56.5% | 36.3% and 41.4% | 31.9% and 35.9% | 18.8 nM and 18.2 nM | 29.8% and 45.5% | 30.5% and 53.4% | – | – | – | – | –
6 | CC1COCCN1c1cc(C2(S(C)(=N)=O)CC2)nc(-c2ccnc3[nH]ccc23)n1 (centres undefined) | – | – | 107% and 106% | 85.1% and 117% | 1810 nM and > 10000 nM | 79.9% and 107% | 57.8% and 84.8% | – | – | – | – | viability, T/C (compound 3.16 µM): 38.3% and 58.8%; viability, T/C (compound 10 µM): 37.8% and 56.7%
7 | CCN(c1cc(-c2ccc(CN3CCOCC3)cc2)cc(C(=O)NCc2c(C)cc(C)[nH]c2=O)c1C)C1CCOCC1 | – | – | – | – | > 3000 nM | – | – | 91.4% and 104% | 96.6% and 104% | 103% | 97.3% and 101% | viability, T/C (compound 0.949 µM): 91.9% and 89.5%; viability, T/C (compound 3 µM): 92.6% and 92%
8 | CC[C@@]1(O)C(=O)OCc2c1cc1n(c2=O)Cc2cc3c(CN(C)C)c(O)ccc3nc2-1 | 66% and 83.8% | 41.8% and 55.4% | 34.3% and 41.5% | 22.4% and 29.9% | 7.34 nM and 15.4 nM | – | – | – | – | – | – | viability, T/C (compound 0.000316 µM): 108% and 99%; viability, T/C (compound 0.001 µM): 88.5% and 100%
9 | CCc1c2c(nc3ccc(O)cc13)-c1cc3c(c(=O)n1C2)COC(=O)[C@]3(O)CC | – | – | – | – | < 0.949 nM | – | – | 11.9% and 12.5% | 7.76% and 6.48% | 5.86% and 7.35% | 5.31% and 11.3% | viability, T/C (compound 0.000949 µM): 25.8% and 33.6%; viability, T/C (compound 0.003 µM): 18.4% and 20.9%
10 | COc1cc(C2c3cc4c(cc3C(OC3OC5COC(C)OC5C(O)C3O)C3COC(=O)C23)OCO4)cc(OC)c1O (centres undefined) | – | – | – | – | 230 nM and 199 nM | – | – | 80.5% and 89.5% | 76.5% and 74.9% | 64.3% and 57.3% | 42.8% and 45.1% | viability, T/C (compound 0.949 µM): 37.4% and 36.7%; viability, T/C (compound 3 µM): 25.3% and 27.8%
11 | COc1cc(Nc2ncc3c(n2)-c2ccc(Cl)cc2C(c2c(F)cccc2OC)=NC3)ccc1C(=O)O | 96.9% and 78.1% | 90.6% and 74% | 68.8% and 68.2% | 70% and 73.6% | > 1000 nM | 73.4% and 78% | 68.2% and 64.2% | – | – | – | – | –
12 | COc1ccc([C@@H](O)c2cc(-c3ncnc4cc(N5CCOCC5)ccc34)c(F)cc2Cl)nn1 | – | – | 101% and 104% | 93.2% and 96.7% | 2190 nM and 2880 nM | 77.3% and 87.9% | 61.9% and 64.3% | – | – | – | – | viability, T/C (compound 3.16 µM): 44.9% and 50.9%; viability, T/C (compound 10 µM): 29.5% and 30.6%
13 | Cn1ncnc1C1c2n[nH]c(=O)c3cc(F)cc(c23)NC1c1ccc(F)cc1 (centres undefined) | 96% and 98.3% | 99.2% and 101% | 89.6% and 93.2% | 94% and 91.3% | > 100 nM | – | – | – | – | – | – | viability, T/C (compound 0.000316 µM): 97.3% and 103%; viability, T/C (compound 0.001 µM): 92.2% and 108%
14 | NC1CC1c1ccc(-c2cccc(O)c2)cc1 (centres undefined) | – | – | – | – | – | – | – | – | – | – | – | IC50 (compound alone, run of 02/01/2022): > 10000 nM
15 | NC1CCC(NC2CC2c2ccccc2)CC1 (centres undefined) | – | – | – | – | – | 85.8% and 90% | 86.8% [middle of 25 runs] | – | – | – | – | IC50 (compound alone, run of 01/18/2022): > 10000 nM
16 | NS(=O)(=O)OCC1CC(n2ccc3c(NC4CCc5ccccc54)ncnc32)CC1O (centres undefined) | – | – | – | – | > 3000 nM | – | – | 115% and 114% | 98.1% and 121% | 91.9% and 121% | 99.7% and 70.9% | viability, T/C (compound 0.949 µM): 54.7% and 62.8%; viability, T/C (compound 3 µM): 55.3% and 60%
17 | Nc1ccccc1NC(=O)c1ccc(CNC(=O)OCc2cccnc2)cc1 | – | – | – | – | 402 nM and 414 nM | – | – | 100% and 112% | 73.8% and 105% | 75% and 76.2% | 56.3% and 69.2% | viability, T/C (compound 0.949 µM): 38.6% and 20.9%; viability, T/C (compound 3 µM): 11.8% and 1.21%
18 | Nc1ccn(C2OC(CO)C(O)C2(F)F)c(=O)n1 (centres undefined) | – | – | – | – | – | – | – | 49% and 73.2% | 38.4% and 57.3% | 37.5% and 50.2% | 34.7% and 50.1% | viability, T/C (compound 0.000949 µM): 64.7% and 96.4%; viability, T/C (compound 0.003 µM): 56.8% and 94.6%
19 | Nc1ncn(C2CC(O)C(CO)O2)c(=O)n1 (centres undefined) | 89% and 109% | 105% and 103% | 83.9% and 95.3% | 78.7% and 96.2% | > 1000 nM | 80.5% and 91.1% | 79.3% and 85.2% | – | – | – | – | –
20 | Nc1ncn(C2CC(O)C(CO)S2)c(=O)n1 (centres undefined) | – | – | – | – | > 300 nM | – | – | 103% and 100% | 76.5% and 87.5% | 76.6% and 87.2% | 62.8% and 79.2% | viability, T/C (compound 0.000949 µM): 96% and 102%; viability, T/C (compound 0.003 µM): 96.2% and 104%
21 | O=C(C=Cc1cccc(S(=O)(=O)Nc2ccccc2)c1)NO | – | – | – | – | 401 nM and > 3000 nM | – | – | 87.5% and 110% | 96.6% and 99.4% | 75.9% and 90.7% | 54.9% | viability, T/C (compound 0.949 µM): 30.9% and 11.4%
22 | O=C(C=Cn1cnc(-c2cc(C(F)(F)F)cc(C(F)(F)F)c2)n1)NNc1cnccn1 | 63.9% and 63.1% | 51.8% and 58% | 43.4% and 58.5% | 40.6% and 47.5% | 16.9 nM and 76.1 nM | 31.4% and 38.6% | 21.8% and 36.8% | – | – | – | – | –
23 | O=C(c1cc(Cc2n[nH]c(=O)c3ccccc23)ccc1F)N1CCN(C(=O)C2CC2)CC1 | – | – | 105% and 108% | 103% and 108% | > 10000 nM | 94.7% and 105% | 92.7% and 102% | – | – | – | – | viability, T/C (compound 3.16 µM): 79% and 91.8%; viability, T/C (compound 10 µM): 68.4% and 69.3%
